Test results: the NIST ThermoML archive (doi:10.1016/j.fluid.2012.08.009)

Conditions: Liquid; for vapor or sublimation pressure: Ebulliometric method (Recirculating still); for Normal boiling temperature: Siwoloboff method

CCO[Si](C)(OCC)c1ccc(C)cc1 [diethoxy(methyl)(p-tolyl)silane]
Conditions | Normal boiling temperature [°C] | vapor or sublimation pressure [kPa]
– | 239.57 | –
394.65 K | – | 2
402.86 K | – | 3
409.39 K | – | 4
414.72 K | – | 5
419.19 K | – | 6
423.25 K | – | 7
429.82 K | – | 9
435.35 K | – | 11
442.33 K | – | 14
448.16 K | – | 17
453.16 K | – | 20
457.61 K | – | 23
461.72 K | – | 26
465.36 K | – | 29
468.68 K | – | 32
471.81 K | – | 35
474.73 K | – | 38
477.27 K | – | 41
479.82 K | – | 44
482.24 K | – | 47
484.62 K | – | 50
486.87 K | – | 53

CN1CCCC1=O [N-methylpyrrolidone]
Conditions | Normal boiling temperature [°C] | vapor or sublimation pressure [kPa]
– | 202.14 | –
380.76 K | – | 4.742
388.05 K | – | 6.361
400.39 K | – | 10.29
411.34 K | – | 15.22
420.9 K | – | 20.97
432.23 K | – | 30.08
441.78 K | – | 39.96
451.08 K | – | 52.18
457.44 K | – | 62.11
475.79 K | – | 99.4

CCO[Si](C)(OCC)c1cccc(C)c1 [diethoxy(methyl)(m-tolyl)silane]
Conditions | Normal boiling temperature [°C] | vapor or sublimation pressure [kPa]
– | 235.8 | –
391.91 K | – | 2
400.12 K | – | 3
406.47 K | – | 4
411.84 K | – | 5
416.3 K | – | 6
420.23 K | – | 7
426.81 K | – | 9
432.31 K | – | 11
439.13 K | – | 14
444.83 K | – | 17
449.84 K | – | 20
454.26 K | – | 23
458.23 K | – | 26
461.73 K | – | 29
465.1 K | – | 32
468.22 K | – | 35
471.02 K | – | 38
473.69 K | – | 41
476.21 K | – | 44
478.56 K | – | 47
480.85 K | – | 50
483.08 K | – | 53
485.67 K | – | 57
488.08 K | – | 61

CCO[Si](C)(OCC)c1ccccc1C [diethoxy(methyl)(o-tolyl)silane]
Conditions | Normal boiling temperature [°C] | vapor or sublimation pressure [kPa]
– | 239.83 | –
393.45 K | – | 2
401.5 K | – | 3
407.98 K | – | 4
413.33 K | – | 5
417.79 K | – | 6
421.8 K | – | 7
431.54 K | – | 10
439.05 K | – | 13
445.46 K | – | 16
450.67 K | – | 19
455.4 K | – | 22
459.55 K | – | 25
463.3 K | – | 28
466.73 K | – | 31
469.94 K | – | 34
472.92 K | – | 37
475.72 K | – | 40
478.35 K | – | 43
480.89 K | – | 46
483.26 K | – | 49
